From PubChem BioAssay (NCI) come the findings set out here.

Values joined by “and” are separate entries in the source; they are usually repeats but may differ in a detail not shown here. Equal values may be shown once.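 Exposure lasted 48 hours, with cells grown in 96-well plates and compounds tested at five concentrations. Abbreviation: GI50, concentration required for 50% inhibition of growth. The concentration for full growth arrest is given as TGI.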

Common to all, as to assay: NCI anticancer screen, dose series, 48 h
In assay [1] the test system is HCT-116 colon.
Assay [2] deals with UACC-257 melanoma.
In assay [3] the test system is U251 CNS.
Assay [4] relates to SK-MEL-5 melanoma.
Assay [5] has as its system HOP-62 NSCLC.
Assay [6] concerns PC-3 prostate.
Assay [7] deals with IGROV1 ovarian.
Assay [8] concerns HS 578T breast.
For assay [9], the system named is HL-60(TB) leukemia.
The test system of assay [10] is K-562 leukemia.

Take `C=C(Cl)COC(=O)Nc1cccc(Cl)c1`: the TGI was 78.7 µM in [1]; greater than 100 µM in assay [2]; greater than 100 µM in assay [3]; 39.6 µM in assay [4]; greater than 100 µM in assay [5]; 84.6 µM in assay [6]. Besides, the TGI in assay [7] is greater than 100 µM; in assay [8] it was greater than 100 µM; in assay [9] it was 94.6 µM; in [10] it was greater than 100 µM.
`Cc1ncc([N+](=O)[O-])n1CCNS(=O)(=O)CCCn1ccnc1[N+](=O)[O-]`: the TGI in [1], in assay [2], in assay [3], in assay [4], in assay [5] and in assay [6] was greater than 100 µM throughout. The TGI in assay [7], in [8], in assay [9] and in [10] was greater than 100 µM in each case.
As to `O=C1CCCCCCCC/C=C/CCC(c2ccco2)O1` (configuration not stated), the GI50 in [1] was 31.2 µM; in [2] it was greater than 100 µM; in [3] it was 31.4 µM; in assay [4], 44 µM; in [5], 41.2 µM; in assay [6] it was 77.8 µM. The GI50 in assay [7] is 51.2 µM; in assay [8], 16.2 µM; in assay [9], 14.5 µM; in assay [10], 35.2 µM. The TGI in assay [1], in [2], in [3], in assay [4], in [5] and in [6] was greater than 100 µM in each case. Besides, the TGI is greater than 100 µM in assay [7], 77.9 µM in [8], 38.7 µM in assay [9] and greater than 100 µM in assay [10].
For `O=C1C(Cl)=C(Oc2ccc([N+](=O)[O-])cc2)C(=O)c2c(O)ccc(O)c21`, the TGI in assay [1], in [2], in assay [3], in assay [4], in assay [5] and in [6] was greater than 100 µM throughout. The TGI was greater than 100 µM in [7], greater than 100 µM in assay [8], 19.2 µM in assay [9] and 40.3 µM in assay [10].
`COC1/C=C\C=C(/C)C(=O)Nc2cc3nc4ccc(Br)cc4oc-3c(c2=O)CC(C)CC(OC)C(O)C(C)/C=C(\C)C1OC(N)=O` (configuration not stated): the GI50 is 0.00083 µM in assay [1]; 0.00321 µM in assay [2]; 0.00574 µM in [6]; 0.00312 µM in assay [7]; 0.000389 µM in [9]; 0.000503 µM in assay [10]. For the same molecule, the TGI was determined as 4.92 µM in assay [1]; 6.93 µM in assay [2]; 28.7 µM in [3]; 9.44 µM in assay [4]; 21.2 µM in [5]; 24.5 µM in assay [6]. Further, the figures for the TGI in assay [7], in assay [8] and in assay [10] were 19.2 µM, 22.9 µM and 7.03 µM, respectively.
On to `COc1ccc(C2=NN(C(=O)COc3ccc(Cl)cc3)C(O)(c3cc(F)c(Cl)cc3Cl)C2)cc1OC` (configuration not stated), for which the GI50 in [1] is 1.23 µM; in assay [2] it was 2.74 µM; in assay [3], 5.69 µM; in assay [4], 8.29 µM; in assay [5], 13.9 µM; in [6], 5.49 µM. Moreover, the GI50 in assay [7] is 10.2 µM; in [8], 4.5 µM; in assay [9], 2.68 µM; in assay [10] it was 1.55 µM. For the same molecule, the TGI is 2.58 µM in assay [1]; 8.01 µM in [2]; 16.6 µM in assay [3]; 20.9 µM in assay [4]; 30.8 µM in [5]; 13.2 µM in assay [6]. In addition, the TGI is 22.2 µM in assay [7], 13.4 µM in [8], 7.86 µM in assay [9] and 15.2 µM in assay [10].
On to `c1ccc(C(=NNc2nc3ccccc3o2)c2ccccn2)nc1`, for which the GI50 is 0.0296 µM in assay [1]; 0.163 µM in [2]; 0.0649 µM in assay [3]; 0.163 µM in [4]; 0.0532 µM in assay [5]; 0.0436 µM in assay [6]. Also, the results for the GI50 in assay [7], in [8] and in [9] were 0.0437 µM, 1.01 µM and 0.0323 µM, respectively. Also, the TGI was 0.633 µM in assay [2]; 20.1 µM and 16.1 µM in assay [3]; 1.18 µM and 0.491 µM in assay [4]; 26.6 µM and 13.8 µM in [6]; 11.7 µM in [7]; > 81.9 µM and 55.5 µM in [8]. The TGI in [9] was 0.289 µM and 1.14 µM; in assay [10], > 100 µM and 22.9 µM.
As to `CC(=O)Nc1nc(SCc2ccccc2)c2ncn(C(C)=O)c2n1`, the GI50 in assay [1] was greater than 100 µM; in assay [2] it was greater than 100 µM; in [3], 88.8 µM; in assay [4], 45.3 µM; in assay [5], 62.7 µM; in assay [6], 72.2 µM. The GI50 was 79 µM in assay [7], 47.3 µM in assay [8], 63 µM in [9] and greater than 100 µM in [10]. Further, the TGI in assay [1], in [2], in [3], in assay [4], in assay [5] and in assay [6] was greater than 100 µM throughout. In addition, the TGI in assay [7], in assay [8], in assay [9] and in assay [10] was greater than 100 µM each time.
Consider `COc1ccc(C2c3cc4c(cc3OC(NNC(N)=O)C2C)OCO4)cc1` (configuration not stated), for which the TGI in [1] is 21.5 µM; in assay [2], greater than 100 µM; in assay [3], 35.2 µM; in [4], greater than 63.2 µM; in [5] it was greater than 54.4 µM; in assay [6], 53.8 µM. The TGI in assay [7] was greater than 100 µM; in assay [8] it was greater than 100 µM; in assay [9], 5.22 µM; in assay [10] it was greater than 34.9 µM.
Regarding `Cc1ccccc1CN1CC2=C(CCN(Cc3ccccc3)C2=O)N2CCN=C12`, the TGI in [1] was greater than 100 µM; in assay [2] it was greater than 100 µM; in [3], greater than 100 µM; in assay [4], greater than 64.7 µM; in [5], greater than 100 µM; in [6], greater than 100 µM. Besides, the TGI in assay [7], in assay [8], in assay [9] and in [10] was greater than 100 µM in each case.
